From patent EP1125946A1, “Cell adhesion therapy through modulation of a Rap family member or of a GEF (guanine nucleotide exchange factor)” (Universitair Medisch Centrum Utrecht, priority 2000, dated 2001) come the findings set out here.

The subject of assay [1] is LFA-1. The experiment in a line: flow cytometry of mAB 24 epitope expression on Jurkat cells. The format is cell-based. Particulars: Jurkat cells coincubated with mAB 24 and 400 µM MnCl2; relative to unstimulated. The method, then: The anti-aL integrin antibody mAB 24 recognizes a conformation-dependent ligand-induced epitope on LFA-1, and induction of the mAB 24 epitope correlates with increased LFA-1 affinity for ICAM (Dransfield and Hogg, 1989). […] This conformational change can also be induced by LFA-1 exposure to Mn^2+, independently of "inside-out" signalling. […] Incubation of cells with mAB 24 at 4°C abolished CD31 and Mn^2+ -induced mAB 24 expression to background levels (data not shown), consistent with the temperature-sensitivity of the mAB 24 epitope (Dransfield and Hogg, 1989). […]
Flow cytometric analysis of transfected cells was performed by cotransfecting Jurkat JHMI cells with […] pCMV-EGFP C1 plasmid (Promega) and the indicated cDNA constructs. […] Fluorescence intensity of EGFP-transfected cells was determined using a FACsCaliber flow cytometer and CellQuest software (both from Becton Dickinson).
Figure 4. […] Cells were sequentially stained with anti-b2 integrin antibody L15 and rabbit anti-mouse Ig-RPE-Cy5 conjugate, and GFP-expressing cells analysed by flow cytometry. […] Alternatively, unstimulated cells were coincubated with mAB 24 and 400 µM MnCl2 (Mn). mAB 24 expression was assessed by flow cytometry, and expression levels normalized to 1 for unstimulated GFP-alone cells in each experiment. […]
(Flow cytometry measures light scatter and fluorescence of single cells or particles in a stream.)

Assay [2] deals with Rap1. The experiment in a line: GTP-bound GTPase pull-down with GST-RalGDS-RBD and immunoblotting in Jurkat cells. Type of assay: cell-based. Conditions: Jurkat JHMI 2.2 cells; TPA 100 ng/ml, 5 minutes. From the text: (§1) To address which Ras family members, if any, might participate in CD31 signaling, we precipitated endogenous GTPases from lysates of CD31-stimulated Jurkat with GST fusion proteins of Ras family-binding domains (RBDs) of Raf and RalGDS, which bind with high selectivity and specificty to activated Ras and Rap GTPases, respectively (de Rooij and Bos, 1997; Franke et al., 1997). Immunoblotting of precipitated GTPases provides a qualitative representation of GTPase activation status following cell stimulation, corresponding to quantitative changes detected using classical GDP/GTP-binding ratio techniques. […] GTP-bound R-Ras was detected in Raf-RBD pull-downs only following longer exposures of films, reflecting the relatively low levels of R-Ras protein expression in Jurkat. […]
Figure 1. […] Bound GTPases were resolved on SDS-PAGE, transferred to PVDF membrane, and detected by immunoblotting with antibodies against the indicated proteins, followed by enhanced chemiuminescence (ECL). […] Fold activation of Rap1 compared to untreated cells was obtained by quantitating pixels from representative blots using Adobe Photoshop software. […] CD31 WT, CD31 GPI, and Y663/686F Jurkat cell lines were stimulated for two minutes with medium (-) or 10 µg/ml PECAM 1.3 antibody and activated Rap1 detected as in A. Results shown in each panel are representative of three independent experiments.
Background: A western blot detects proteins with antibodies after separation by electrophoresis.

Assay [3] deals with Ras. The experiment in a line: GTP-bound GTPase pull-down with GST-Raf-RBD and immunoblotting in Jurkat cells. Conditions: Jurkat JHMI 2.2 cells, time-course; TPA 100 ng/ml, 5 minutes. Type of assay: cell-based.
Excerpt: as §1
Figure 1. […] Bound GTPases were resolved on SDS-PAGE, transferred to PVDF membrane, and detected by immunoblotting with antibodies against the indicated proteins, followed by enhanced chemiuminescence (ECL). […] JHMI cells were activated for 2 minutes with medium (-), anti-CD3 antibody T3b (1:200) or the indicated anti-CD31 antibodies (10 µg/ml), and Rap1 activation detected as in A. Fold activation of Rap1 compared to untreated cells was obtained by quantitating pixels from representative blots using Adobe Photoshop software. […]

The target in assay [4] is catalytic domain of Epac1 (Homo sapiens, UniProt O95398).
Description: Next we investigated whether a direct covalent linkage between the catalytic domain and the B-site is essential for this regulation, or whether they can function as separate domains. We therefore isolated the regulatory domains of both Epac1 and Epac2 and incubated them with the corresponding catalytic domains.
For purification of Glutathione S-transferase (GST) -fusion constructs all cDNAs were cloned in pGEX bacterial expression vectors. […] The GST fusion construct of Repac contains amino acids 2-580. The catalytic domain CalDAG-GEFI contains amino acids 3-422. The catalytically active PDZ-GEF1 construct contains amino acids 251-1001. The GST-PKA fusion construct used contained the R1a-subunit of Bovine PKA, lacking amino acids 1-91. Protein production was induced in Bl-21 bacteria using 100 nM IPTG for 20 h at room temperature. After protein production, bacteria were pelleted and lyzed in ice-cold PBS containing 1% Triton-X100 and protease inhibitors. The lysate was sonicated three times for 10 seconds and centrifuged at 10,000 x g to remove insoluble material. […]
Briefly, 100 nM of purified GTPase, loaded with fluorescently labeled 2',3'-bis (O) -N-methylantharanoloyl-guanosinediphosphate(mantGDP), was incubated, in the presence of excess unlabelled GDP, with 50 nM of purified GEF unless indicated differently. Release of mGDP was measured in realtime as a decrease in fluorescence. […]
The target in assay [5] is catalytic domain of Epac2 (Mus musculus, UniProt Q9EQZ6).
Description: We therefore isolated the regulatory domains of both Epac1 and Epac2 and incubated them with the corresponding catalytic domains.
Protein production was induced in Bl-21 bacteria using 100 nM IPTG for 20 h at room temperature. After protein production, bacteria were pelleted and lyzed in ice-cold PBS containing 1% Triton-X100 and protease inhibitors. The lysate was sonicated three times for 10 seconds and centrifuged at 10,000 x g to remove insoluble material. GST-fusion proteins we purified from the cleared lysate by batch-wise incubation with glutathione-agarose beads (Sigma), eluted from the beads in buffer containing 50 mM Tris pH 7.5, 100 mM NaCl, 10% glycerol and 10mM glutathione and dialyzed for 20 hours in the same buffer without glutathione. When indicated, proteins were cleaved from the GST-tag by incubation with thrombin and purified by gelfiltration.
Briefly, 100 nM of purified GTPase, loaded with fluorescently labeled 2',3'-bis (O) -N-methylantharanoloyl-guanosinediphosphate(mantGDP), was incubated, in the presence of excess unlabelled GDP, with 50 nM of purified GEF unless indicated differently. Release of mGDP was measured in realtime as a decrease in fluorescence. To calculate reaction rates, single exponential functions were fit using the program Grafit3.0 (Eritacus). […]
Assay [6] deals with T1, full length CalDAG-GEF 1 (Homo sapiens, UniProt Q7LDG7).
T1 construct: To that end full length CalDAG-GEF 1 and a CalDAG-Gef mutants lacking the regulatory domain was compared
T1 sequence (Q7LDG7 1-609): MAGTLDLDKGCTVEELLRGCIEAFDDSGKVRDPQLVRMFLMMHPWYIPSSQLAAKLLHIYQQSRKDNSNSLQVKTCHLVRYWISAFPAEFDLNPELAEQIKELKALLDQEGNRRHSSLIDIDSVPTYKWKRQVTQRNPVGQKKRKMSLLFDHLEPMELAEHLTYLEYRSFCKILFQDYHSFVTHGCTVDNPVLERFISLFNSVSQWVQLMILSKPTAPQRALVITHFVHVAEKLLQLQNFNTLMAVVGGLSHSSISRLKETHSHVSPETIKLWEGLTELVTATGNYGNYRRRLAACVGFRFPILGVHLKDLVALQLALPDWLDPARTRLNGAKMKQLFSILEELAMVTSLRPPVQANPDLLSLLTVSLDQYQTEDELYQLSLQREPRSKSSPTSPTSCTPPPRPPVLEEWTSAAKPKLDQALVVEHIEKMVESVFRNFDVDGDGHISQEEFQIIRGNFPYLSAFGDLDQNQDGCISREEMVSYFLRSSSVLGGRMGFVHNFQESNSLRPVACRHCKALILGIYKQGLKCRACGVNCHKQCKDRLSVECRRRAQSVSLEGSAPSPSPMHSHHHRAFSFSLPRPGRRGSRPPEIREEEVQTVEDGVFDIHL
The experiment in a line: in vitro activation of Rap1 (mantGDP-loaded) by full length CalDAG-GEF versus mutant lacking the regulatory domain. The format is biochemical. Particulars: 100 µM calcium added; compared with mutant lacking the regulatory domain. The method, then: We therefore investigated whether CalDAG-GEF was regulated by an auto-inhibitory domain. To that end full length CalDAG-GEF 1 and a CalDAG-Gef mutants lacking the regulatory domain was compared for in vitro activation of Rap1.
Figure 9. CalDAG-GEF contains an autoinhibitory domain regulated by calcium. Equal amounts of CalDAG-GEF and mutant CalDAG-GEF lacking the DAG and Ca binding domains were incubayed with mantGDP-loaded Rap1 and incubated in the presence or absence of 100 µM calcium.

catalytic domain of Epac2, sequence (Q9EQZ6 478-1011): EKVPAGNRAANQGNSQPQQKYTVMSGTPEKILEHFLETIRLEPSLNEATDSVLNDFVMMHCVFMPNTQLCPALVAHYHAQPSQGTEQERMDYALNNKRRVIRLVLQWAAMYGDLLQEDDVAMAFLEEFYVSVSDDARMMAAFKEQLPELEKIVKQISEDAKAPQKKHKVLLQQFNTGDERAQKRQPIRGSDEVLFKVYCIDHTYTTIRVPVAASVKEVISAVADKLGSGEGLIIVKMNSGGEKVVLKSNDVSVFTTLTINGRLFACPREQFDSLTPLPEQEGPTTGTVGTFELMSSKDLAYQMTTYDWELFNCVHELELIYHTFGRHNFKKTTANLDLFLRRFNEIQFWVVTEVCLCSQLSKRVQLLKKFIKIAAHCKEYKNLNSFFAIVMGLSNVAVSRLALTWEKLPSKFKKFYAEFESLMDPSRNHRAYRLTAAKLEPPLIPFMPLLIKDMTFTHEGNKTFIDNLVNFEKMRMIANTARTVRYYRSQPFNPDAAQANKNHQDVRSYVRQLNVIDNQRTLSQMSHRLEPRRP
catalytic domain of Epac2, sequence (Q9EQZ6 1-463 isoform Q9EQZ6-3 partner): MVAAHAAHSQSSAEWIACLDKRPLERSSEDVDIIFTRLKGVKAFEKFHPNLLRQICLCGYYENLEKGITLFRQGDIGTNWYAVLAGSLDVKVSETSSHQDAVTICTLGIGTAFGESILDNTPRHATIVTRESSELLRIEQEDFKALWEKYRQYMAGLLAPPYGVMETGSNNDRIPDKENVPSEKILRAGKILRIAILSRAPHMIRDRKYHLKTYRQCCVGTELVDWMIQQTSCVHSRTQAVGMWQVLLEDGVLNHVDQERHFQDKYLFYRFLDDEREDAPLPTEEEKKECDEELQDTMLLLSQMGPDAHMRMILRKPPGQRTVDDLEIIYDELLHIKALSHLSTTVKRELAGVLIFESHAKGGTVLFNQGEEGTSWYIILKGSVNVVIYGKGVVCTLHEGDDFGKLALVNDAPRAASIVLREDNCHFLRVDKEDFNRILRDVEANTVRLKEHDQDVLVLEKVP
catalytic domain of Epac1, sequence (O95398 44-371): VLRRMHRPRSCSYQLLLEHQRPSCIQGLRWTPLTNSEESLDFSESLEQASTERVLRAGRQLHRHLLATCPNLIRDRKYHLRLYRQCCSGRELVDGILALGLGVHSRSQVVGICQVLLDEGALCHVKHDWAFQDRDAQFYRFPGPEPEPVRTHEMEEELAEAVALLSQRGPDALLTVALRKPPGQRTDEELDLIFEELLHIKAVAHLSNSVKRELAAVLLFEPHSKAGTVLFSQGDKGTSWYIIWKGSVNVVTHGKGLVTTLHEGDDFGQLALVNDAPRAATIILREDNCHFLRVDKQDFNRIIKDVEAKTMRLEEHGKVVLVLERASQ

With `[Cl][Mn][Cl]` [Mn^2+, MnCl2], in assay [1], the “increase in mAB 24 expression” value is on record as 2.25-2.5 fold.
For `CCCCCCCCCCCCCC(=O)O[C@@H]1[C@@H](C)[C@@]2(O)[C@@H](C=C(CO)C[C@]3(O)C(=O)C(C)=C[C@@H]23)[C@@H]2C(C)(C)[C@]12OC(C)=O` [TPA], the “activation of Rap1” value in assay [2] is “activated”. Besides, in assay [3], the “activation of Ras” value is recorded as “activated”.
As to `Nc1ncnc2c1ncn2[C@@H]1O[C@@H]2COP(=O)(O)O[C@H]2[C@H]1O` [cAMP], the “effect on inhibition of the catalytic domain by the regulatory domain” value in assay [4] and in assay [5] was “abolishes the inhibitory effect” each time.
On to `[Ca+2]` [calcium], for which, in assay [6], the “efficiency of full length CalDAG-GEF in activating Rap1” value was “became as efficient as the mutant”.
